Experimental data reported in ChEMBL document CHEMBL5634099, “Pyrrole-thiazolidinone hybrids as a new structural class of broad-spectrum anti-infectives” (Eur J Med Chem, 2023).
Converted amounts (≈) assume the structure as drawn.

Experiments:
[1] = tested on: Staphylococcus aureus; experiment: Antibacterial activity against methicillin-resistant Staphylococcus aureus NR 193 clinical isolate assessed as bacterial growth inhibition incubated for 16 to 18 hrs by CLSI based susceptibility testing method; type: functional; conditions: time 16-18 hrs
[2] = tested on: Staphylococcus aureus; experiment: Antibacterial activity against methicillin-resistant Staphylococcus aureus NR 194 clinical isolate assessed as bacterial growth inhibition incubated for 16 to 18 hrs by CLSI based susceptibility testing method; type: functional; conditions: time 16-18 hrs
[3] = tested on: Staphylococcus aureus; experiment: Antibacterial activity against methicillin-resistant Staphylococcus aureus NR 129 clinical isolate assessed as bacterial growth inhibition incubated for 16 to 18 hrs by CLSI based susceptibility testing method; type: functional; conditions: time 16-18 hrs
[4] = tested on: Staphylococcus aureus; experiment: Antibiofilm activity against Staphylococcus aureus ATCC 29213 assessed as reduction in biofilm formation at 10 times MIC incubated for 24 hrs by absorbance based assay relative to control; type: functional; set-up: scale not given: the % may be the effect or the level left
[5] = tested on: Staphylococcus aureus; experiment: Antibacterial activity against methicillin-resistant Staphylococcus aureus NR 191 clinical isolate assessed as bacterial growth inhibition incubated for 16 to 18 hrs by CLSI based susceptibility testing method; type: functional; conditions: time 16-18 hrs
[6] = tested on: Klebsiella pneumoniae; experiment: Antibacterial activity against Klebsiella pneumoniae BAA 1705 assessed as bacterial growth inhibition incubated for 16 to 18 hrs by CLSI based susceptibility testing method; type: functional; conditions: time 16-18 hrs
[7] = tested on: Staphylococcus aureus; experiment: Antibacterial activity against Staphylococcus aureus ATCC 29213 assessed as bacterial growth inhibition incubated for 16 to 18 hrs by CLSI based susceptibility testing method; type: functional; conditions: time 16-18 hrs
[8] = tested on: Staphylococcus aureus; experiment: Antibacterial activity against vancomycin-resistant Staphylococcus aureus VRS 1 clinical isolate assessed as bacterial growth inhibition incubated for 16 to 18 hrs by CLSI based susceptibility testing method; type: functional; conditions: time 16-18 hrs
[9] = tested on: Staphylococcus aureus; experiment: Antibacterial activity against methicillin-sensitive Staphylococcus aureus ATCC 29213 clinical isolate assessed as bacterial growth inhibition incubated for 16 to 18 hrs by CLSI based susceptibility testing method; type: functional; conditions: time 16-18 hrs
[10] = tested on: Staphylococcus aureus; experiment: Antibacterial activity against methicillin-resistant Staphylococcus aureus NR 198 clinical isolate assessed as bacterial growth inhibition incubated for 16 to 18 hrs by CLSI based susceptibility testing method; type: functional; conditions: time 16-18 hrs
[11] = tested on: Staphylococcus aureus; experiment: Antibacterial activity against methicillin-resistant Staphylococcus aureus NR 192 clinical isolate assessed as bacterial growth inhibition incubated for 16 to 18 hrs by CLSI based susceptibility testing method; type: functional; conditions: time 16-18 hrs
[12] = tested on: Staphylococcus aureus; experiment: Antibacterial activity against methicillin-resistant Staphylococcus aureus NR 100 clinical isolate assessed as bacterial growth inhibition incubated for 16 to 18 hrs by CLSI based susceptibility testing method; type: functional; conditions: time 16-18 hrs
[13] = tested on: Staphylococcus aureus; experiment: Antibacterial activity against vancomycin-resistant Staphylococcus aureus VRS 12 clinical isolate assessed as bacterial growth inhibition incubated for 16 to 18 hrs by CLSI based susceptibility testing method; type: functional; conditions: time 16-18 hrs
[14] = tested on: Staphylococcus aureus; experiment: Antibacterial activity against methicillin-resistant Staphylococcus aureus NR 119 clinical isolate assessed as bacterial growth inhibition incubated for 16 to 18 hrs by CLSI based susceptibility testing method; type: functional; conditions: time 16-18 hrs
[15] = tested on: Staphylococcus aureus; experiment: Antibacterial activity against methicillin-resistant Staphylococcus aureus NR 186 clinical isolate assessed as bacterial growth inhibition incubated for 16 to 18 hrs by CLSI based susceptibility testing method; type: functional; conditions: time 16-18 hrs
[16] = tested on: Staphylococcus aureus; experiment: Antibacterial activity against vancomycin-resistant Staphylococcus aureus VRS 4 clinical isolate assessed as bacterial growth inhibition incubated for 16 to 18 hrs by CLSI based susceptibility testing method; type: functional; conditions: time 16-18 hrs
[17] = Cytotoxicity against African green monkey Vero cells assessed as reduction in cell viability incubated for 72 hrs by MTT assay; type: toxicity, cell-based; conditions: chlorocebus sabaeus
[18] = tested on: Mycobacteroides chelonae; experiment: Antimycobacterial activity against Mycobacteroides chelonae ATCC 35752 assessed as bacterial growth inhibition incubated for 7 days by resazurin dye based assay; type: functional; conditions: ATCC 35752, 168 h, time 7 day
[19] = tested on: Mycolicibacterium fortuitum; experiment: Antimycobacterial activity against Mycobacterium fortuitum ATCC 6841 assessed as bacterial growth inhibition incubated for 7 days by resazurin dye based assay; type: functional; conditions: ATCC 6841, 168 h, time 7 day
[20] = tested on: Mycobacterium tuberculosis; experiment: Antimycobacterial activity against Mycobacterium tuberculosis H37Rv ATCC 27294 assessed as bacterial growth inhibition incubated for 7 days by resazurin dye based assay; type: functional; conditions: H37Rv ATCC 27294, 168 h, time 7 day
[21] = tested on: Acinetobacter baumannii; experiment: Antibacterial activity against Acinetobacter baumannii BAA 1605 assessed as bacterial growth inhibition incubated for 16 to 18 hrs by CLSI based susceptibility testing method; type: functional; conditions: time 16-18 hrs
[22] = Selectivity index, ratio of CC50 for African green monkey Vero cells to IC50 for Mycobacterium tuberculosis H37Rv ATCC 27294; type: toxicity; conditions: read-out: Selectivity Index
[23] = tested on: Escherichia coli; experiment: Antibacterial activity against Escherichia coli ATCC 25922 assessed as bacterial growth inhibition incubated for 16 to 18 hrs by CLSI based susceptibility testing method; type: functional; conditions: time 16-18 hrs
[24] = tested on: Pseudomonas aeruginosa; experiment: Antibacterial activity against Pseudomonas aeruginosa ATCC 27853 assessed as bacterial growth inhibition incubated for 16 to 18 hrs by CLSI based susceptibility testing method; type: functional; conditions: time 16-18 hrs
[25] = tested on: Mycobacteroides abscessus; experiment: Antimycobacterial activity against Mycobacterium abscessus ATCC 19977 assessed as bacterial growth inhibition incubated for 7 days by resazurin dye based assay; type: functional; conditions: ATCC 19977, 168 h, time 7 day
[26] = Selectivity index, ratio of CC50 for African green monkey Vero cells to IC50 for Staphylococcus aureus ATCC 29213; type: toxicity; conditions: read-out: Selectivity Index

Q: Which MIC [1] does the source give for `C[C@H]1COc2c(N3CCN(C)CC3)c(F)cc3c(=O)c(C(=O)O)cn1c23` [LEVOFLOXACIN ANHYDROUS] here?
A: 32 µg/mL (≈ 88.6 µM)

Q: What about the MIC [2] of the same molecule?
A: 0.125 µg/mL (≈ 0.346 µM)

Q: And the MIC [3]?
A: 0.25 µg/mL (≈ 0.692 µM)

Q: And the Activity [4]?
A: 10%

Q: What about the MIC [5] of the same molecule?
A: 16 µg/mL (≈ 44.3 µM)

Q: What about the MIC [6] of the same molecule?
A: 64 µg/mL (≈ 177 µM)

Q: And the MIC [7]?
A: 0.25 µg/mL (≈ 0.692 µM)

Q: What about the MIC [8] of the same molecule?
A: 32 µg/mL (≈ 88.6 µM)

Q: What about the MIC [9] of the same molecule?
A: 0.25 µg/mL (≈ 0.692 µM)

Q: What about the MIC [10] of the same molecule?
A: 32 µg/mL (≈ 88.6 µM)

Q: What about the MIC [11] of the same molecule?
A: 8 µg/mL (≈ 22.1 µM)

Q: What about the MIC [12] of the same molecule?
A: 0.25 µg/mL (≈ 0.692 µM)

Q: And the MIC [13]?
A: 32 µg/mL (≈ 88.6 µM)

Q: And the MIC [14]?
A: 16 µg/mL (≈ 44.3 µM)

Q: What about the MIC [15] of the same molecule?
A: 4 µg/mL (≈ 11.1 µM)

Q: What about the MIC [16] of the same molecule?
A: > 64 µg/mL

Q: For `Cc1ccc(-n2c(C)cc(/C=C3\S/C(=N/c4nccs4)NC3=O)c2C)cc1C`, which CC50 at 72 h [17] is on record?
A: 40 µg/mL (≈ 97.9 µM)

Q: And the MIC [18]?
A: > 64 µg/mL

Q: And the MIC [19]?
A: > 64 µg/mL

Q: And the MIC [20]?
A: 0.5 µg/mL (≈ 1.22 µM)

Q: And the MIC [21]?
A: > 64 µg/mL

Q: And the MIC [6]?
A: > 64 µg/mL

Q: What about the MIC [7] of the same molecule?
A: 16 µg/mL (≈ 39.2 µM)

Q: What about the selectivity ratio [22] of the same molecule?
A: 80

Q: And the MIC [23]?
A: > 64 µg/mL

Q: What about the MIC [24] of the same molecule?
A: > 64 µg/mL

Q: What about the MIC [25] of the same molecule?
A: > 64 µg/mL

Q: Which results are given for `COc1ccccc1-n1c(C)cc(/C=C2\S/C(=N/c3nccs3)NC2=O)c1C`?
A: CC50 at 72 h [17]: 40 µg/mL (≈ 97.4 µM); MIC [18]: > 64 µg/mL; MIC [1]: 2 µg/mL (≈ 4.87 µM); MIC [19]: > 64 µg/mL; MIC [2]: 2 µg/mL (≈ 4.87 µM); MIC [3]: 2 µg/mL (≈ 4.87 µM); Activity [4]: >11%; MIC [5]: 2 µg/mL (≈ 4.87 µM); MIC [20]: 2 µg/mL (≈ 4.87 µM); MIC [21]: > 64 µg/mL; MIC [6]: > 64 µg/mL; MIC [7]: 0.5 µg/mL (≈ 1.22 µM); MIC [8]: 2 µg/mL (≈ 4.87 µM); MIC [9]: 0.5 µg/mL (≈ 1.22 µM); MIC [10]: 2 µg/mL (≈ 4.87 µM); MIC [11]: 2 µg/mL (≈ 4.87 µM); MIC [12]: 1 µg/mL (≈ 2.44 µM); MIC [13]: 2 µg/mL (≈ 4.87 µM); selectivity ratio [26]: 80; MIC [14]: 2 µg/mL (≈ 4.87 µM); MIC [23]: > 64 µg/mL; MIC [24]: > 64 µg/mL; MIC [15]: 1 µg/mL (≈ 2.44 µM); MIC [16]: 2 µg/mL (≈ 4.87 µM); MIC [25]: > 64 µg/mL

Q: For `CN[C@H](CC(C)C)C(=O)N[C@H]1C(=O)N[C@@H](CC(N)=O)C(=O)N[C@H]2C(=O)N[C@H]3C(=O)N[C@H](C(=O)N[C@H](C(=O)O)c4cc(O)cc(O)c4-c4cc3ccc4O)[C@H](O)c3ccc(c(Cl)c3)Oc3cc2cc(c3O[C@@H]2O[C@H](CO)[C@@H](O)[C@H](O)[C@H]2O[C@H]2C[C@](C)(N)[C@H](O)[C@H](C)O2)Oc2ccc(cc2Cl)[C@H]1O` [VANCOMYCIN], which Activity [4] is on record?
A: 7.7%

Q: What about the MIC [8] of the same molecule?
A: > 64 µg/mL

Q: What about the MIC [13] of the same molecule?
A: > 64 µg/mL

Q: What about the MIC [16] of the same molecule?
A: > 64 µg/mL

Q: Which results are given for `C[C@@H](O)[C@H]1C(=O)N2C(C(=O)O)=C(S[C@@H]3CN[C@H](C(=O)N(C)C)C3)[C@H](C)[C@H]12` [MEROPENEM]?
A: MIC [1]: 64 µg/mL (≈ 167 µM); MIC [2]: 1 µg/mL (≈ 2.61 µM); MIC [3]: 2 µg/mL (≈ 5.22 µM); MIC [5]: 32 µg/mL (≈ 83.4 µM); MIC [8]: 64 µg/mL (≈ 167 µM); MIC [9]: 0.125 µg/mL (≈ 0.326 µM); MIC [10]: 32 µg/mL (≈ 83.4 µM); MIC [11]: 8 µg/mL (≈ 20.9 µM); MIC [12]: 32 µg/mL (≈ 83.4 µM); MIC [13]: 4 µg/mL (≈ 10.4 µM); MIC [14]: 64 µg/mL (≈ 167 µM); MIC [15]: 4 µg/mL (≈ 10.4 µM); MIC [16]: 32 µg/mL (≈ 83.4 µM)
